According to ChEMBL document CHEMBL5724914, “Linking interpersonal differences in gut microbiota composition and drug biotransformation activity” (2024):

Assay: (§1) The drug is tested on Z-013 corresponding to rabbit gut metagenome with ENA study accession number: PRJEB37062 and ENA sample accession number: ERS12561813 for biotransformation under anaerobic condition. The drug concentrations were measured over 9 timepoints collected between 0 and 24 hours of incubation by liquid-chromatography-coupled mass spectrometry (LC–MS)
Settings: 2 µM
Also: call rule not given here.

Row | Bacterial Biotransformation | SMILES
1 | Compound NOT metabolized | CN(C)CCC=C1c2ccccc2COc2ccccc21 [DOXEPIN]
2 | Compound metabolized | C[C@]12CCC(=O)C=C1[C@@H]1C[C@@H]1[C@H]1[C@@H]3[C@@H]4C[C@@H]4[C@@]4(CCC(=O)O4)[C@@]3(C)CC[C@@H]12 [DROSPIRENONE]

Assay: as §1, with “Z-009” for “Z-013”, “pig” for “rabbit”, “ERS12561809” for “ERS12561813”
Settings: 2 µM

Row | Bacterial Biotransformation | SMILES
3 | Compound metabolized | CN(C)CCC=C1c2ccccc2COc2ccccc21 [DOXEPIN]
4 | Compound metabolized | C[C@]12CCC(=O)C=C1[C@@H]1C[C@@H]1[C@H]1[C@@H]3[C@@H]4C[C@@H]4[C@@]4(CCC(=O)O4)[C@@]3(C)CC[C@@H]12 [DROSPIRENONE]

Assay: as §1, with “Z-008” for “Z-013”, “to” for “to rabbit gut”, “ERS12561808” for “ERS12561813”
Settings: 2 µM

Row | Bacterial Biotransformation | SMILES
5 | Compound NOT metabolized | CN(C)CCC=C1c2ccccc2COc2ccccc21 [DOXEPIN]
6 | Compound metabolized | C[C@]12CCC(=O)C=C1[C@@H]1C[C@@H]1[C@H]1[C@@H]3[C@@H]4C[C@@H]4[C@@]4(CCC(=O)O4)[C@@]3(C)CC[C@@H]12 [DROSPIRENONE]

Settings: human gut metagenome, 24 h, 2 µM

Row | Bacterial Biotransformation | SMILES
7 | Compound metabolized | CN(C)CCC=C1c2ccccc2COc2ccccc21 [DOXEPIN]
8 | Compound metabolized | C[C@]12CCC(=O)C=C1[C@@H]1C[C@@H]1[C@H]1[C@@H]3[C@@H]4C[C@@H]4[C@@]4(CCC(=O)O4)[C@@]3(C)CC[C@@H]12 [DROSPIRENONE]

Settings: human gut metagenome, 24 h, 2 µM
Remark: another data set of the same source

Row | Bacterial Biotransformation | SMILES
9 | Compound NOT metabolized | CN(C)CCC=C1c2ccccc2COc2ccccc21 [DOXEPIN]
10 | Compound metabolized | C[C@]12CCC(=O)C=C1[C@@H]1C[C@@H]1[C@H]1[C@@H]3[C@@H]4C[C@@H]4[C@@]4(CCC(=O)O4)[C@@]3(C)CC[C@@H]12 [DROSPIRENONE]

Settings: human gut metagenome, 24 h, 2 µM
Remark: another data set of the same source

Row | Bacterial Biotransformation | SMILES
11 | Compound metabolized | CN(C)CCC=C1c2ccccc2COc2ccccc21 [DOXEPIN]
12 | Compound NOT metabolized | C[C@]12CCC(=O)C=C1[C@@H]1C[C@@H]1[C@H]1[C@@H]3[C@@H]4C[C@@H]4[C@@]4(CCC(=O)O4)[C@@]3(C)CC[C@@H]12 [DROSPIRENONE]

Assay: as §1, with “WLS-073” for “Z-013”, “human” for “rabbit”, “ERS12561749” for “ERS12561813”
Settings: 2 µM

Row | Bacterial Biotransformation | SMILES
13 | Compound metabolized | CN(C)CCC=C1c2ccccc2COc2ccccc21 [DOXEPIN]
14 | Compound metabolized | C[C@]12CCC(=O)C=C1[C@@H]1C[C@@H]1[C@H]1[C@@H]3[C@@H]4C[C@@H]4[C@@]4(CCC(=O)O4)[C@@]3(C)CC[C@@H]12 [DROSPIRENONE]

Assay: as §1, with “Z-026” for “Z-013”, “to” for “to rabbit gut”, “ERS12561825” for “ERS12561813”
Settings: 2 µM

Row | Bacterial Biotransformation | SMILES
15 | Compound NOT metabolized | CN(C)CCC=C1c2ccccc2COc2ccccc21 [DOXEPIN]
16 | Compound NOT metabolized | C[C@]12CCC(=O)C=C1[C@@H]1C[C@@H]1[C@H]1[C@@H]3[C@@H]4C[C@@H]4[C@@]4(CCC(=O)O4)[C@@]3(C)CC[C@@H]12 [DROSPIRENONE]

Settings: human gut metagenome, 24 h, 2 µM
Remark: another data set of the same source

Row | Bacterial Biotransformation | SMILES
17 | Compound NOT metabolized | CN(C)CCC=C1c2ccccc2COc2ccccc21 [DOXEPIN]
18 | Compound NOT metabolized | C[C@]12CCC(=O)C=C1[C@@H]1C[C@@H]1[C@H]1[C@@H]3[C@@H]4C[C@@H]4[C@@]4(CCC(=O)O4)[C@@]3(C)CC[C@@H]12 [DROSPIRENONE]

Assay: as §1, with “WLS-090” for “Z-013”, “human” for “rabbit”, “ERS12561753” for “ERS12561813”
Settings: 2 µM

Row | Bacterial Biotransformation | SMILES
19 | Compound metabolized | CN(C)CCC=C1c2ccccc2COc2ccccc21 [DOXEPIN]
20 | Compound NOT metabolized | C[C@]12CCC(=O)C=C1[C@@H]1C[C@@H]1[C@H]1[C@@H]3[C@@H]4C[C@@H]4[C@@]4(CCC(=O)O4)[C@@]3(C)CC[C@@H]12 [DROSPIRENONE]

Settings: human gut metagenome, 24 h, 2 µM
Remark: another data set of the same source

Row | Bacterial Biotransformation | SMILES
21 | Compound NOT metabolized | CN(C)CCC=C1c2ccccc2COc2ccccc21 [DOXEPIN]
22 | Compound NOT metabolized | C[C@]12CCC(=O)C=C1[C@@H]1C[C@@H]1[C@H]1[C@@H]3[C@@H]4C[C@@H]4[C@@]4(CCC(=O)O4)[C@@]3(C)CC[C@@H]12 [DROSPIRENONE]

Settings: human gut metagenome, 24 h, 2 µM
Remark: another data set of the same source

Row | Bacterial Biotransformation | SMILES
23 | Compound metabolized | CN(C)CCC=C1c2ccccc2COc2ccccc21 [DOXEPIN]
24 | Compound metabolized | C[C@]12CCC(=O)C=C1[C@@H]1C[C@@H]1[C@H]1[C@@H]3[C@@H]4C[C@@H]4[C@@]4(CCC(=O)O4)[C@@]3(C)CC[C@@H]12 [DROSPIRENONE]

Assay: as §1, with “Z-023” for “Z-013”, “to” for “to rabbit gut”, “ERS12561822” for “ERS12561813”
Settings: 2 µM

Row | Bacterial Biotransformation | SMILES
25 | Compound metabolized | CN(C)CCC=C1c2ccccc2COc2ccccc21 [DOXEPIN]
26 | Compound metabolized | C[C@]12CCC(=O)C=C1[C@@H]1C[C@@H]1[C@H]1[C@@H]3[C@@H]4C[C@@H]4[C@@]4(CCC(=O)O4)[C@@]3(C)CC[C@@H]12 [DROSPIRENONE]

Assay: as §1, with “Z-021” for “Z-013”, “to” for “to rabbit gut”, “ERS12561820” for “ERS12561813”
Settings: 2 µM

Row | Bacterial Biotransformation | SMILES
27 | Compound NOT metabolized | CN(C)CCC=C1c2ccccc2COc2ccccc21 [DOXEPIN]
28 | Compound metabolized | C[C@]12CCC(=O)C=C1[C@@H]1C[C@@H]1[C@H]1[C@@H]3[C@@H]4C[C@@H]4[C@@]4(CCC(=O)O4)[C@@]3(C)CC[C@@H]12 [DROSPIRENONE]

Assay: as §1, with “Z-016” for “Z-013”, “mouse” for “rabbit”, “ERS12561815” for “ERS12561813”
Settings: 2 µM

Row | Bacterial Biotransformation | SMILES
29 | Compound NOT metabolized | CN(C)CCC=C1c2ccccc2COc2ccccc21 [DOXEPIN]
30 | Compound metabolized | C[C@]12CCC(=O)C=C1[C@@H]1C[C@@H]1[C@H]1[C@@H]3[C@@H]4C[C@@H]4[C@@]4(CCC(=O)O4)[C@@]3(C)CC[C@@H]12 [DROSPIRENONE]

Settings: human gut metagenome, 24 h, 2 µM
Remark: another data set of the same source

Row | Bacterial Biotransformation | SMILES
31 | Compound NOT metabolized | CN(C)CCC=C1c2ccccc2COc2ccccc21 [DOXEPIN]
32 | Compound metabolized | C[C@]12CCC(=O)C=C1[C@@H]1C[C@@H]1[C@H]1[C@@H]3[C@@H]4C[C@@H]4[C@@]4(CCC(=O)O4)[C@@]3(C)CC[C@@H]12 [DROSPIRENONE]

Assay: as §1, with “Z-024” for “Z-013”, “pig” for “rabbit”, “ERS12561823” for “ERS12561813”
Settings: 2 µM

Row | Bacterial Biotransformation | SMILES
33 | Compound metabolized | CN(C)CCC=C1c2ccccc2COc2ccccc21 [DOXEPIN]
34 | Compound NOT metabolized | C[C@]12CCC(=O)C=C1[C@@H]1C[C@@H]1[C@H]1[C@@H]3[C@@H]4C[C@@H]4[C@@]4(CCC(=O)O4)[C@@]3(C)CC[C@@H]12 [DROSPIRENONE]

Settings: human gut metagenome, 24 h, 2 µM
Remark: another data set of the same source

Row | Bacterial Biotransformation | SMILES
35 | Compound NOT metabolized | CN(C)CCC=C1c2ccccc2COc2ccccc21 [DOXEPIN]
36 | Compound metabolized | C[C@]12CCC(=O)C=C1[C@@H]1C[C@@H]1[C@H]1[C@@H]3[C@@H]4C[C@@H]4[C@@]4(CCC(=O)O4)[C@@]3(C)CC[C@@H]12 [DROSPIRENONE]

Settings: human gut metagenome, 24 h, 2 µM
Remark: another data set of the same source

Row | Bacterial Biotransformation | SMILES
37 | Compound NOT metabolized | CN(C)CCC=C1c2ccccc2COc2ccccc21 [DOXEPIN]
38 | Compound metabolized | C[C@]12CCC(=O)C=C1[C@@H]1C[C@@H]1[C@H]1[C@@H]3[C@@H]4C[C@@H]4[C@@]4(CCC(=O)O4)[C@@]3(C)CC[C@@H]12 [DROSPIRENONE]

Assay: as §1, with “Z-003” for “Z-013”, “pig” for “rabbit”, “ERS12561803” for “ERS12561813”
Settings: 2 µM

Row | Bacterial Biotransformation | SMILES
39 | Compound NOT metabolized | CN(C)CCC=C1c2ccccc2COc2ccccc21 [DOXEPIN]
40 | Compound metabolized | C[C@]12CCC(=O)C=C1[C@@H]1C[C@@H]1[C@H]1[C@@H]3[C@@H]4C[C@@H]4[C@@]4(CCC(=O)O4)[C@@]3(C)CC[C@@H]12 [DROSPIRENONE]
